In general, Ki refers to a dissociation constant, usually derived from enzyme kinetics or from competition with a known ligand. The low end stands for higher affinity, the high end for lower affinity.

Experimental findings from US9365583B2, “Substituted pyrazoles and uses thereof” (Genentech, Inc., priority 2013, dated 2016) are described below.

For this test, the target named is T1, N-terminally GST-tagged DLK (catalytic domain amino acid 1-520) (Homo sapiens, UniProt Q12852).
T1 construct: N-terminally GST-tagged DLK (catalytic domain amino acid 1-520); purchased Carna Bioscience
T1 sequence (Q12852 1-520): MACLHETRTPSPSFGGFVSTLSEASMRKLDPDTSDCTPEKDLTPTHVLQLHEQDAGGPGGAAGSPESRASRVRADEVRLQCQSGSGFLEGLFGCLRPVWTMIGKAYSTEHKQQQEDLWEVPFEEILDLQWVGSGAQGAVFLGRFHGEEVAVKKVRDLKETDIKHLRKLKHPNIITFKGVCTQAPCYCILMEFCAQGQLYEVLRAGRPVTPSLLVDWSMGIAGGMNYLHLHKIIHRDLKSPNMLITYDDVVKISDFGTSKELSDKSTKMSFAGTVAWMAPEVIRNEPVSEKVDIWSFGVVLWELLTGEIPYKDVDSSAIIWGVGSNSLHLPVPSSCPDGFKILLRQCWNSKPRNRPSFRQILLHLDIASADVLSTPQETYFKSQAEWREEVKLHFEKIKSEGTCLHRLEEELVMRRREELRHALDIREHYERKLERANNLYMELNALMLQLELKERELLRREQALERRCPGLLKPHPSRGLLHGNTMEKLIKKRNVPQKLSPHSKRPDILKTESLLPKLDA
In words: DLK TR-FRET inhibition assay. The format is biochemical. Particulars: 5 nM GST-DLK, 40 nM HIS-MKK4 K131M substrate, 30 μM ATP, 60 minutes at ambient temperature. The method, boiled down:
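5 nM GST-DLK (aa 1-520), 40 nM HIS-MKK4 K131M and 30 μM ATP reacted 60 min at ambient temperature in HEPES pH 7.5 buffer with 10 mM MgCl2, compound 1:3 serially diluted from 20 uM. TR-FRET detection of phospho-MKK4 used Eu-cryptate anti-phospho-MKK4 plus D2 anti-HIS, read after 3 h (665/615 nm).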
For orientation: TR-FRET usually uses a lanthanide donor and a delayed reading to cut background.
In turn, `CC(C)n1nc(-c2cnc(N)c(OC(F)(F)F)c2)cc1[C@H]1[C@@H]2C[C@@H](N3CC(F)C3)C[C@@H]21` [compound 28, 5-(5-((1R,3s,5S,6r)-3-(3-fluoro-azetidin-1-yl)bicyclo[3.1.0]hexan-6-yl)-1-isopropyl-1H-pyrazol-3-yl)-3-(trifluoromethoxy) pyridin-2-amine] had a Ki of 2.54 nM.

`CC(C)N1CCN([C@@H]2C[C@@H]3[C@H](C2)[C@H]3c2cc(-c3cnc(N)c(OC(F)F)c3)nn2C(C)C)CC1` [compound 176, 3-(difluoromethoxy)-5-(1-isopropyl-5-((1R,3s,5S,6r)-3-(4-isopropyl-piperazin-1-yl)bicyclo[3.1.0]hexan-6-yl)-1H-pyrazol-3-yl) pyridin-2-amine] showed a Ki of 1.8 nM. `CO[C@H]1CCN([C@H]2C[C@@H]3[C@H](C2)[C@H]3c2cc(-c3cnc(N)c(OC(F)(F)F)c3)nn2C(C)C)C1` [compound 23, 5-(1-isopropyl-5-((1R,3r,5S,6S)-3-((S)-3-methoxypyrrolidin-1-yl)bicyclo[3.1.0]hexan-6-yl)-1H-pyrazol-3-yl)-3-(trifluoro-methoxy)pyridin-2-amine]: the Ki worked out at 0.98 nM.

Take `CC(C)n1nc(-c2cnc(N)c(OC(F)F)c2)cc1[C@H]1[C@@H]2C[C@@H](N3CCOCC3)C[C@@H]21` [compound 137, 3-(difluoromethoxy)-5-(1-isopropyl-5-((1R,3s,5S,6r)-3-morpholino-bicyclo[3.1.0]hexan-6-yl)-1 H-pyrazol-3-yl)pyridin-2-amine]: the inhibition constant (Ki) was 3.34 nM.

Molecule `COC1CN([C@H]2C[C@@H]3[C@H](C2)[C@H]3c2cc(-c3cnc(N)c(OC(F)F)c3)nn2C(C)C)C1` [compound 61, 3-(difluoromethoxy)-5-(1-isopropyl-5-((1R,3r,5S,6r)-3-(3-methoxy-azetidin-1-yl)bicyclo[3.1.0]hexan-6-yl)-1H-pyrazol-3-yl) pyridin-2-amine] registered an inhibition constant Ki of 3.05 nM. As for `CC(C)n1nc(-c2cnc(N)c(OC(F)(F)F)c2)cc1[C@H]1[C@@H]2C[C@@H](N3CCCOCC3)C[C@@H]21` [compound 99, 5-(5-((1R,3s,5S,6r)-3-(1,4-oxazepan-4-yl)bicyclo[3.1.0]hexan-6-yl)-1-isopropyl-1H-pyrazol-3-yl)-3-(trifluoromethoxy)pyridin-2-amine], the affinity, expressed as Ki, was 1.16 nM. As to `COCCO[C@@H]1C[C@@H]2[C@H](C1)[C@H]2c1cc(-c2cnc(N)c(C(F)(F)F)c2)nn1C(C)C` [compound 275, 5-(1-isopropyl-5-((1R,3s,5S,6r)-3-(2-methoxyethoxy)bicyclo [3.1.0]hexan-6-yl)-1H-pyrazol-3-yl)-3-(trifluoromethyl)pyridin-2-amine], the affinity corresponds to a Ki of 4.7 nM. `CC(C)n1nc(-c2cnc(N)c(C(F)(F)F)c2)cc1[C@H]1[C@@H]2C[C@H](N(C)CC3COC3)C[C@@H]21` [compound 20, 5-(1-isopropyl-5-((1R,3r,5S,6r)-3-(methyl(oxetan-3-ylmethyl)amino)bicyclo[3.1.0]hexan-6-yl)-1H-pyrazol-3-yl)-3-(trifluoro-methyl)pyridin-2-amine] returned an inhibition constant (Ki) of 4.39 nM. `CC(C)n1nc(-c2cnc(N)c(C(F)(F)F)c2)cc1[C@H]1[C@@H]2C[C@H](N3CCN(C)CC3)C[C@@H]21` [compound 63, 5-(1-isopropyl-5-((1R,3r,5S,6r)-3-(4-methylpiperazin-1-yl)bicyclo [3.1.0]hexan-6-yl)-1H-pyrazol-3-yl)-3-(trifluoromethyl)pyridin-2-amine] returned a Ki of 2.21 nM. As for `CC(C)n1nc(-c2cnc(N)c(C(F)(F)F)c2)cc1[C@H]1[C@@H]2C[C@@H](N3CCN(CC(F)F)CC3)C[C@@H]21` [compound 266], the affinity corresponds to a Ki of 1.1 nM. The molecule `CC(C)n1nc(-c2cnc(N)c(C(F)(F)F)c2)cc1[C@H]1[C@@H]2C[C@@H](N3CCN4CCCC4C3)C[C@@H]21` (single isomer, unassigned) [compound 261] returned an inhibition constant Ki of 1.2 nM.
